Laboratory results as given in US20060069132A1, “Azolecarboxamide herbicides” (priority 2004, published 2006).

What was measured:
Surinam grass = assay: Test C pre-/postemergence herbicide test; format: in vivo, Urochloa decumbens
How it was run: (§1)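 Pre/post spray; non-phytotoxic solvent + surfactant. Post-timing 1–4 leaves, 2–18 cm. Read-out: visual % control vs untreated, day 12–14, greenhouse.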

barnyardgrass = assay: Test B flooded paddy test; format: in vivo, Echinochloa crus-galli; settings: 1000 g ai/ha, scale 0 to 100 (0 no effect, 100 complete control)
How it was run: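 Greenhouse test; postemergence application to plants at 1–4 leaves (2–18 cm); paddy species at 2 leaves; evaluated visually vs controls at 13–15 days; scale 0–100 (100 = complete control).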

goosegrass = assay: Test C pre-/postemergence herbicide test; format: in vivo, Eleusine indica
How it was run: as §1

giant foxtail = assay: Test A pre-/postemergence herbicide test; format: in vivo, Setaria faberi
How it was run: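 Greenhouse injury scoring (0–100, complete control = 100) at approximately ten days follows simultaneous pre- and postemergence application. Soil received a directed spray after seeding; seedlings of 2–10 cm at the one- to two-leaf stage were sprayed to runoff.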

lambsquarters = assay: Test B pre-/postemergence herbicide test; format: in vivo, Chenopodium album
How it was run: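 Seeds were planted and treated preemergence with compounds formulated in a non-phytotoxic solvent mixture containing surfactant, while plants at the 1- to 4-leaf stage (2 to 18 cm) received postemergence sprays. Flooded paddy plants were grown to the 2-leaf stage. After 13 to 15 days in a greenhouse, injury was visually rated 0–100 against untreated controls.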

pigweed = assay: Test C pre-/postemergence herbicide test; format: in vivo, Amaranthus retroflexus
How it was run: as §1

soybean = assay: Test C pre-/postemergence herbicide test; format: in vivo, Glycine max
How it was run: as §1

[1] = 125 g ai/ha, scale 0 (no effect) to 100 (complete control), visual, 12 to 14 days, preemergence
[2] = 250 g ai/ha, scale 0 to 100 (0 no effect, 100 complete control), visual, 12 to 14 days, preemergence
[3] = Postemergence, 250 g ai/ha, scale 0 to 100, 0 no effect, 100 complete control
[4] = postemergence, 62 g ai/ha, scale 0 to 100
[5] = Postemergence, 500 g ai/ha, 0 to 100 scale, 0 no effect, 100 complete control
[6] = Postemergence, 2000 g ai/ha, 0 to 100 scale, 0 no effect, 100 complete control
[7] = Preemergence, 500 g ai/ha, visual rating, 0 to 100 scale (0 no effect, 100 complete control)
[8] = Preemergence, 2000 g ai/ha, 0 to 100 scale, 0 no effect, 100 complete control
[9] = Postemergence, 500 g ai/ha, visual rating after 13 to 15 days, scale 0 (no effect) to 100 (complete control)
[10] = preemergence, 125 g ai/ha, 0 to 100 scale, 0 is no effect, 100 is complete control
[11] = Preemergence, 500 g ai/ha, scale 0 to 100, 0 no effect, 100 complete control
[12] = 62 g ai/ha, preemergence, scale 0 to 100
[13] = 250 g ai/ha, scale 0-100, preemergence
[14] = 500 g ai/ha, scale 0 to 100 (0 no effect, 100 complete control), visual, 12 to 14 days, preemergence

SMILES	Plant response rating (0 = no effect, 100 = complete control), Surinam Grass (Surinam grass; 62 g ai/ha, preemergence)	Plant response rating, Surinam Grass (Surinam grass; [1])	Plant response rating, Surinam Grass (Surinam grass; [2])	Barnyardgrass plant response rating (barnyardgrass; visual rating, 13 to 15 days)	Plant response rating (0 = no effect, 100 = complete control), Goosegrass (goosegrass; 62 g ai/ha, preemergence)	Plant response rating, Goosegrass (goosegrass; [1])	Plant response rating, Goosegrass (goosegrass; [2])	Plant response rating, Foxtail, Giant (giant foxtail; [5])	Plant response rating, Foxtail, Giant (giant foxtail; [6])	Foxtail, Giant plant response rating (giant foxtail; [7])	Foxtail, Giant plant response rating (giant foxtail; [8])	Plant response rating, Lambsquarters (lambsquarters; [9])	Plant response rating, Lambsquarters (lambsquarters; [10])	Plant response rating (0 = no effect, 100 = complete control), Pigweed (pigweed; 62 g ai/ha, preemergence)	Plant response rating, Pigweed (pigweed; [1])	Plant response rating, Pigweed (pigweed; [2])	Plant response rating (0 = no effect, 100 = complete control), Soybean (soybean; 62 g ai/ha, preemergence)	Plant response rating, Soybean (soybean; [1])	Plant response rating, Soybean (soybean; [2])	other results
CCn1nc(C(C)(C)C)cc1C(=O)Nc1cccc(C(=O)NC2CC2)c1 [Compound 44]	10	10	10	70	10	30	50	50	90	65	100	90	80	10	70	90	0	10	10	Plant response rating, Surinam Grass (Surinam grass; [3]): 40; Plant response rating, Surinam Grass (Surinam grass; [4]): 40; Plant response rating, Goosegrass (goosegrass; Postemergence, 125 g ai/ha, scale 0 to 100, 0 no effect, 100 complete control): 40; Plant response rating, Goosegrass (goosegrass; [3]): 50; Plant response rating, Goosegrass (goosegrass; [4]): 40; Lambsquarters plant response rating (lambsquarters; Postemergence, 125 g ai/ha, scale 0 (no effect) to 100 (complete control)): 80; Lambsquarters plant response rating (lambsquarters; Preemergence, 500 g ai/ha, scale 0 to 100): 100; Plant response rating, Pigweed (pigweed; [3]): 100; Plant response rating, Pigweed (pigweed; [4]): 100; Plant response rating, Soybean (soybean; [3]): 100; Plant response rating, Soybean (soybean; [4]): 100
CCn1nc(C(C)(C)C)cc1C(=O)Nc1cccc(C(=O)NCC(C)C)c1 [Compound 61]	0	0	5	30	0	40	70	20	85	20	75	100	100	0	95	95	0	0	0	Surinam Grass plant response rating (Surinam grass; [11]): 5; Goosegrass plant response rating (goosegrass; [11]): 95; Lambsquarters plant response rating (lambsquarters; postemergence, 125 g ai/ha, visual rating, scale 0 (no effect) to 100 (complete control)): 90; Pigweed plant response rating (pigweed; [11]): 95; Soybean plant response rating (soybean; [11]): 10
CCN(CC)C(=O)c1cccc(NC(=O)c2cc(C(C)(C)C)nn2C)n1 [Compound 314]						40			70						60					Plant response rating, Surinam Grass (Surinam grass; [12]): 0; Plant response rating, Surinam Grass (Surinam grass; [13]): 0; Plant response rating, Surinam Grass (Surinam grass; [14]): 20; Barnyardgrass plant response rating (barnyardgrass): 30; Plant response rating, Goosegrass (goosegrass; [12]): 0; Plant response rating, Goosegrass (goosegrass; [13]): 65; Plant response rating, Goosegrass (goosegrass; [14]): 85; Foxtail, Giant plant response rating (giant foxtail; [5]): 30; Foxtail, Giant plant response rating (giant foxtail; Preemergence, 2000 g ai/ha, visual rating, 0 to 100 scale (0 no effect, 100 complete control)): 90; Foxtail, Giant plant response rating (giant foxtail; preemergence, 500 g ai/ha, visual injury, 0 to 100 scale (0 no effect, 100 complete control)): 60; Plant response rating (0 to 100 scale), Lambsquarters (lambsquarters; 125 g ai/ha, 0 is no effect, 100 is complete control, preemergence): 20; Lambsquarters plant response rating (lambsquarters; 125 g ai/ha, visual rating, scale 0 (no effect) to 100 (complete control), postemergence): 30; Plant response rating, Lambsquarters (lambsquarters; 500 g ai/ha, visual rating, 0 = no effect, 100 = complete control, preemergence): 80; Lambsquarters plant response rating (lambsquarters; postemergence, 500 g ai/ha, scale 0 to 100, 0 is no effect, 100 is complete control): 60; Plant response rating, Pigweed (pigweed; [12]): 30; Plant response rating, Pigweed (pigweed; [13]): 90; Plant response rating, Pigweed (pigweed; [14]): 90; Plant response rating, Soybean (soybean; [12]): 0; Plant response rating, Soybean (soybean; [13]): 40; Plant response rating, Soybean (soybean; [14]): 40
